Experiments:
Type in all cases: in vivo
S. aureus 10 = experiment: Model of staphylococcal sepsis in mice; conditions: for Death (%) / Survival Rate (%): 14 days
Experimental: To determine the ability of drugs to suppress staphylococcal sepsis, a clinical isolate of S. aureus 10, lacking drug resistance and adapted for use in animals, was used. Animals, divided into several experimental groups, were intravenously infected with a lethal dose of S. aureus (0.1 mL each) (Groups 1–5). […] Along with the testing of compounds of the trisndolylmethylium class, a similar experiment was carried out with levofloxacin, taken as a reference drug for a separate group of animals (Group 4). The control group of animals received an intravenous injection of 5% glucose solution instead of the tested preparations (Group 5). Another control group, which also received a single injection of 5% glucose solution, consisted of animals that were not exposed to infection (Group 6). To study each drug, 110–150 animals were required, which were divided into small subgroups of 10 mice each to test various doses of the compounds studied. The number of dead animals and the time of their death were recorded daily, and the appearance of the animals and their weight were assessed. The duration of the experiment was 14 days.
(§1) The study was conducted on adult female SHK mice (18–20 g) obtained from the animal breeding unit of the FMBA (Scientific Center for Biomedical Technologies of the Federal Biomedical Agency, Moscow, Russia). The animals were randomly divided into groups (n = 6 for the study of acute toxicity, n = 10 (or 8) to study the efficacy of suppressing staphylococcal sepsis). The study of the effectiveness of drugs in the treatment of staphylococcal sepsis required the use of 110–175 mice for each drug, 10 animals per group. The animal study was approved by the Ethics of Animal Experimentation of Gause Institute of New Antibiotics (protocol No 13/2019).
The experiment used a strain of S. aureus 10, having no drug resistance and adapted for use in animals. Initially, the 100% lethal dose (LD100) was determined for this pathogen strain in SHK mice, i.e., the dose of the pathogen at which the death of 100% of the animals was recorded. LD100 dose of staphylococcus detected in the experiment was 8.0 × 10^8 CFU/mouse, which was then used for infecting animals.
The chemotherapeutic efficacy of tris(indolyl)methane derivatives was determined in a model of staphylococcal sepsis in mice. Mice of the SHK colony, weighing 18–20 g, were infected intravenously (into the tail vein) with a lethal dose of staphylococcus (0.1 mL of solution). One hour after infection, mice were injected intravenously (0.2 mL of solution each) with the tested tris(indolyl)methane derivatives in the range of doses from 0.1 to 40 mg/kg. For tested drugs, we used solutions prepared in 5% glucose solution. The study of the effectiveness of each drug was conducted on 115–155 mice (10 mice per group). The duration of the experiment was 14 days. The number of dead animals and the time of their death were recorded daily, and the body weight of the animals was recorded three times a week. Their feed intake was monitored, and clinical signs of animal health were assessed daily.
To determine the effectiveness of the tested drugs, 50% effective doses (ED50) were used, which was determined by the Behrens method (frequency accumulation method), as well as by the Litchfield and Wilcoxon method using the StatPlus 2006 software. For all data, the mean and standard deviation were calculated. The differences were defined as significant at p ≤ 0.05.

[1] = Acute toxicity study, intravenous; conditions: female, SHK, mouse, in vivo, mice, single intravenous
Experimental: (§2) In toxicological experiments with each compound, 72 to 108 animals were used and divided into 8 or 9 experimental groups (6 to 12 mice each), in which the animals received various doses of the tested compounds. There was also a control group of animals, which was injected with the corresponding solvent instead of the experimental compound, and a control group of intact animals. The prepared substances were injected into the animals intravenously (into the tail vein); the dose range was from 1.0 to 100 mg/kg.
as §1
(§3) To prepare solutions of preparations suitable for intravenous administration, dried test compounds with a purity of at least 99% were dissolved in a 5% glucose solution for intravenous administration at a concentration of 3.2 or 6.4 mg/mL. The solutions were sterilized by filtration through Sterivex 0.22 μm filters (Millipore, Burlington, MA, USA). Sterile solutions of drugs with a reduced concentration were then prepared, which allowed for the introduction ofvarious doses of drugs with the same volume (0.2 mL) of solutions. The test preparations were stored at a temperature no higher than 25 °C.
(§4) The study of acute toxicity of each drug was conducted on 72 mice (6 mice per group) using a solution of the test drug prepared in 5% glucose solution. The drug was injected into the tail vein of the animals (0.2 mL) using a syringe with a metal needle in a dose range of 1.0 mg/kg to 70 mg/kg.
(§5) From the first day after administration, the animals were under continuous observation. The number of dead animals and the time of their death were recorded daily. The body weight of the animals and their food consumption was recorded once a week, and the clinical signs of the animals’ health were assessed daily. The duration of observation of the animals was at least 30 days after the last death of the animal. Doses characterizing the toxicity of drugs were calculated by the Litchfield and Wilcoxon method using the StatPlus 2006 software AnalystSoft StatPlus—statistical analysis program, version 2006 (http://www.analystsoft.com/, accessed 11 January 2022). The mean and standard deviation were calculated for all data. The differences are defined as significant at p ≤ 0.05.

SHK mice = experiment: Acute toxicity study, intravenous
Experimental: as §2, §1, §3, §4, §5

[2] = single i.v. 0.5 mg/kg 1 h after infection
[3] = single i.v. 1.0 mg/kg 1 h after infection
[4] = single i.v. 1.5 mg/kg 1 h after infection
[5] = single i.v. 1.75 mg/kg 1 h after infection
[6] = single i.v. 2.0 mg/kg 1 h after infection

SMILES: CCCn1cc([C+](c2cn(CCC)c3ccccc23)c2cn(C3=C(N(C)C)C(=O)NC3=O)c3ccccc23)c2ccccc21 [Compound 3, 1-(4-Dimethylamino-2,5-dioxo-2,5-dihydro-1H-pyrrol-3-yl) -1H-indol-3-yl) bis(1-propyl-1H-indol-3-yl) methylium chloride]
- ED50 (S. aureus 10; Staphylococcus aureus, 10, single intravenous administration 1 h after infection, read-out: ED50): 1.09 mg/kg
- first mortality, day of the experiment (S. aureus 10; experimental group 3): 6 to 7 days
- last death, day of the experiment (S. aureus 10; experimental group 3): 12 days
- Death (%) (S. aureus 10; [2]): 70%
- Survival Rate (%) (S. aureus 10; [2]): 30%
- Death (%) (S. aureus 10; [3]): 50%
- Survival Rate (%) (S. aureus 10; [3]): 50%
- Death (%) (S. aureus 10; [4]): 40%
- Survival Rate (%) (S. aureus 10; [4]): 60%
- Death (%) (S. aureus 10; [5]): 10%
- Survival Rate (%) (S. aureus 10; [5]): 90%
- Death (%) (S. aureus 10; [6]): 0%
- Survival Rate (%) (S. aureus 10; [6]): 100%
- LD50 [1]: 24.2 mg/kg
- MTD ([1]; read-out: MTD (LD10)): 16.9 mg/kg
- lethal dose causing the death of more than 50% of the animals (SHK mice; intravenous): 25 to 40 mg/kg
- time of death of animals after administration (SHK mice; intravenous, in words): during the first day after administration
- LD16 (SHK mice; single intravenous): 18.5 mg/kg
- LD84 (SHK mice; single intravenous): 29.8 mg/kg
- LD100 (SHK mice; single intravenous): 32.6 mg/kg
